Data set [1] is described as follows: Volume of distribution at steady state in dog at 1 mg/kg, iv and 2 mg/kg, po. Format: ADME, organism-based, Canis lupus familiaris. The conditions noted are these: in vivo, read-out: Vdss.
Data set [2] can be described thus: Volume of distribution at steady state in rat at 1 mg/kg, iv and 2 mg/kg, po. Format: ADME, organism-based. To be noted: in vivo, read-out: Vdss.
Data set [3] in a line: Oral bioavailability in rat at 2 mg/kg. Format: ADME, organism-based. To be noted: in vivo.
The nature of data set [4]: Oral bioavailability in dog at 2 mg/kg, po. It is filed as ADME, organism-based, Canis lupus familiaris. To be noted: in vivo.
The nature of data set [5]: Solubility in aqueous phosphate buffer at pH 7.4 after 24 hrs. Format: physicochemical.
Data set [6] is described as follows: Distribution coefficient, log D at pH 7.4. Format: physicochemical. To be noted: octanol/water.
The next data set concerns Phospholipidosis. Description: In vivo phospholipidosis in rat. It is filed as ADME, organism-based.
Data set [7] is described as follows: Permeability across dog MDCK-MDR cell membrane. The conditions noted are these: MDCK-MDR1. It is filed as ADME, cell-based, Canis lupus familiaris.

Experimental findings from ChEMBL document CHEMBL1141539, “Neutral 5-substituted 4-indazolylaminoquinazolines as potent, orally active inhibitors of erbB2 receptor tyrosine kinase” (Bioorg Med Chem Lett, 2008) are described below.

Converted amounts (≈) assume the structure as drawn.

Regarding `C[C@@H](Oc1cccc2ncnc(Nc3ccc4c(cnn4Cc4ccccn4)c3)c12)C(=O)N(C)C`, the Vd in data set [1] stood at 2.3 L/kg; in data set [2], 2.1 L/kg. In addition, the bioavailability in data set [3] came out at 36%; in data set [4] it was 40%. Also, the concentration in solution in data set [5] (solubility at 24 h) was 270 µM (≈ 126 µg/mL). For the same compound, in data set [6], the logD was 2.9.
In data set [5], `C[C@@H](Oc1cccc2ncnc(Nc3ccc4c(cnn4Cc4nccs4)c3)c12)C(=O)N(C)C` showed a solubility at 24 h of 29 µM (≈ 13.7 µg/mL).
In data set [5], `CNC(=O)[C@@H](C)Oc1cccc2ncnc(Nc3ccc4c(cnn4Cc4ccccn4)c3)c12` gave a solubility at 24 h of 4 µM (≈ 1.81 µg/mL).
The same measure, in the same setting: under `C[C@@H](Oc1cccc2ncnc(Nc3ccc4c(cnn4Cc4cscn4)c3)c12)C(=O)N(C)C` stands 44 µM (≈ 20.8 µg/mL); under `C[C@@H](Oc1cccc2ncnc(Nc3ccc4c(cnn4Cc4cccc(F)c4)c3)c12)C(=O)N(C)C`, 3 µM (≈ 1.45 µg/mL).
In the case of `C[C@@H](Oc1cccc2ncnc(Nc3ccc4c(cnn4Cc4nccs4)c3)c12)C(=O)N1CCOCC1`, in the data set on Phospholipidosis, the Phospholipidosis result is reported as “Not Active”. For the same compound, the Vd in data set [1] turned out to be 3.1 L/kg; in data set [2], 2 L/kg. Further, the results for the bioavailability in data set [3] and in data set [4] were 50% and 36%, respectively. Also, in data set [5], the solubility at 24 h turned out to be 101 µM (≈ 52.1 µg/mL). For the same compound, in data set [6], the logD was determined as 2.6. In data set [7], this compound yielded an apparent permeability (Papp) of 10 ×10⁻⁶ cm/s.
In data set [5], `C[C@@H](Oc1cccc2ncnc(Nc3ccc4c(cnn4Cc4ccccn4)c3)c12)C(N)=O` came in with a solubility at 24 h of 3 µM (≈ 1.32 µg/mL).
